Results: the supplement of paper PMC10307832

What was measured:
Assay in all cases: relative viability (nuclei count vs DMSO), 5 days (fraction); higher = more cells survive
[1] = compound: CS(=O)(=O)c1ccc(C(=O)Nc2ccc(Cl)c(-c3ccccn3)c2)c(Cl)c1 [Vismodegib] + N=C(N)NC(=N)NCCc1ccccc1 [Phenformin] (partner 250 µM)
How it was run: (§1)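 One day after seeding in 1536-well plates, lung cancer cell lines were dosed by pin tool. Dosing was either single-drug or a fixed anchor-drug dose plus five library-drug doses (not always all listed) in √10 steps. After 5 days, nuclei were stained in one fix-and-stain step and counted on 4× images, and relative viability is the nuclei count of treated wells over that of vehicle wells, given as the median of duplicate plates.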

[2] = compound: N#CC[C@H](C1CCCC1)n1cc(-c2ncnc3[nH]ccc23)cn1 [Ruxolitinib] + N=C(N)NC(=N)NCCc1ccccc1 [Phenformin] (partner 250 µM)
How it was run: as §1

[3] = compound: CS(=O)(=O)c1ccc(C(=O)Nc2ccc(Cl)c(-c3ccccn3)c2)c(Cl)c1 [Vismodegib] + O=C(c1cc(Cc2n[nH]c(=O)c3ccccc23)ccc1F)N1CCN(C(=O)C2CC2)CC1 [Olaparib] (partner 8 µM)
How it was run: as §1

[4] = compound: CS(=O)(=O)c1ccc(-c2cnc(N)c(C(=O)Nc3ccccc3)n2)cc1 [VE-821] + CC(=O)c1c(C)c2cnc(Nc3ccc(N4CCNCC4)cn3)nc2n(C2CCCC2)c1=O [Palbociclib] (partner 0.5 µM)
How it was run: as §1

Row | Cell Line | relative viability ([1]; first compound 0.08 µM) | relative viability ([1]; first compound 0.253 µM) | relative viability ([1]; first compound 0.8 µM) | relative viability ([1]; first compound 2.53 µM) | relative viability ([1]; first compound 8 µM) | relative viability ([2]; first compound 0.08 µM) | relative viability ([2]; first compound 0.253 µM) | relative viability ([2]; first compound 0.8 µM) | relative viability ([2]; first compound 2.53 µM) | relative viability ([2]; first compound 8 µM) | relative viability ([3]; first compound 0.08 µM) | relative viability ([3]; first compound 0.253 µM) | relative viability ([3]; first compound 0.8 µM) | relative viability ([3]; first compound 2.53 µM) | relative viability ([3]; first compound 8 µM) | relative viability ([4]; first compound 0.08 µM) | relative viability ([4]; first compound 0.253 µM) | relative viability ([4]; first compound 0.8 µM) | relative viability ([4]; first compound 2.53 µM) | relative viability ([4]; first compound 8 µM)
1 | NCI-H520 | 0.535 | 0.576 | 0.63 | 0.574 | 0.688 | 0.565 | 0.323 | 0.717 | 0.483 | 0.58 | 0.314 | 0.366 | 0.397 | 0.281 | 0.354 | 0.243 | 0.242 | 0.177 | 0.269 | 0.188
2 | NCI-H2087 | 0.45 | 0.445 | 0.427 | 0.45 | 0.399 | 0.531 | 0.388 | 0.523 | 0.409 | 0.382 | 0.582 | 0.594 | 0.607 | 0.594 | 0.508 | 0.263 | 0.192 | 0.292 | 0.259 | 0.297
3 | NCI-H522 | 0.643 | 0.618 | 0.673 | 0.657 | 0.632 | 0.663 | 0.644 | 0.728 | 0.575 | 0.617 | 0.786 | 0.591 | 0.612 | 0.567 | 0.565 | 1.06 | 1.15 | 0.754 | 0.932 | 0.999
4 | NCI-H2347 | 0.336 | 0.477 | 0.448 | 0.361 | 0.464 | 0.385 | 0.406 | 0.453 | 0.533 | 0.505 | 0.579 | 0.548 | 0.621 | 0.615 | 0.597 | 0.385 | 0.492 | 0.42 | 0.457 | 0.498
5 | NCI-H838 | 0.53 | 0.573 | 0.559 | 0.67 | 0.612 | 0.602 | 0.54 | 0.465 | 0.266 | 0.263 | 0.791 | 0.71 | 0.777 | 0.757 | 0.778 | 0.222 | 0.186 | 0.218 | 0.266 | 0.191
6 | LXF-289 | 0.524 | 0.495 | 0.508 | 0.517 | 0.467 | 0.509 | 0.492 | 0.538 | 0.491 | 0.497 | 1.05 | 1.01 | 1.11 | 1.02 | 0.94 | 0.583 | 0.606 | 0.716 | 0.677 | 0.712
7 | LC-2-ad | 0.626 | 0.583 | 0.561 | 0.618 | 0.494 |  | 0.515 | 0.561 | 0.553 | 0.456 | 0.681 | 0.734 | 0.686 | 0.658 | 0.716 | 0.557 | 0.473 | 0.559 | 0.504 | 0.514
8 | NCI-H2085 | 0.698 | 0.749 | 0.714 | 0.718 | 0.697 | 0.758 | 0.774 | 0.831 | 0.627 | 0.642 | 0.724 | 0.816 | 0.775 | 0.74 | 0.712 | 0.481 | 0.489 | 0.493 |  | 0.552
